Assay results reported in patent publication US20210115044A1, “TRICYCLIC HETEROCYCLE COMPOUNDS USEFUL AS HIV INTEGRASE INHIBITORS” (Merck Sharp & Dohme Corp., priority 2018, published 2021).
pIC50: −log10 of the molar value. Like-named read-outs stand apart in the source and are kept apart here.

System: HIV-1 (H9/IIIB strain)
Assay: Multiple round HIV-1 infection assay in MT4-GFP cells (wild type cell assay, Viking)
Assay type: cell-based
Conditions: MT4-GFP cells infected with HIV-1 H9/IIIB, inhibition of reproductive ratio R0, ~48 h and ~72 h post-infection
Protocol: The antiviral activity of the Examples herein was assessed in an assay that measures the rate of replication of HIV in cell culture, and performed according to the following procedure. HIV-1 replication was monitored using MT4-gag-GFP clone D3 (hereafter designated MT4-GFP), which are MT-4 cells modified to harbor a GFP reporter gene, the expression of which is dependent on the HIV-1 expressed proteins tat and rev. Productive infection of an MT4-GFP cell with HIV-1 results in GFP expression approximately 24 h post-infection. MT4-GFP cells were maintained at 37° C./5% CO2/90% relative humidity in RPMI 1640 supplemented with 10% fetal bovine serum, 100 U/ml penicillin/streptomycin, and 400 μg/ml G418 to maintain the reporter gene. For infections, MT4-GFP cells were placed in the same medium lacking G418 and infected overnight with HIV-1 (H9/IIIB strain) virus at an approximate multiplicity of infection of 0.01 in the same incubation conditions. Cells were then washed and re-suspended in either RPMI 1640 at 2×10^5 cells/mL (0% NHS condition) or 100% normal human serum (NHS) at 2×10^5 cells/mL (100% NHS condition). Compound plates were prepared by dispensing compounds dissolved in DMSO into wells of 384 well poly-D-lysine-coated plates (0.2 μl/well) using an ECHO acoustic dispenser. Each compound was tested in a 10-point serial 3-fold dilution (typical final concentrations: 1050 nM-0.05 nM for 0% NHS condition or 42 μM-2.13 nM for 100% NHS condition). Controls included no inhibitor (DMSO only) and a combination of three antiviral agents (efavirenz, indinavir, an in-house integrase strand transfer inhibitor at final concentrations of 4 μM each). Cells were added ([…]) to compound plates and the infected cells were maintained at 37° C./5% CO2/90% relative humidity.
Infected cells were quantified at two time points, ˜48 h and ˜72 h post-infection, by counting the number of green cells in each well using an Acumen eX3 scanner. The increase in the number of green cells over ˜24 h period gives the reproductive ratio, R0, which is typically 5-15 and has been shown experimentally to be in logarithmic phase (data not shown). Inhibition of R0 is calculated for each well, and IC50s determined by non-linear 4-parameter curve fitting.

[1] = 0% NHS condition (RPMI 1640), read-out: WILD TYPE CELL ASSAY Viking IP (0% NHS)
[2] = 100% normal human serum condition, read-out: WILD TYPE CELL ASSAY Viking IP (100% NHS)
[3] = Human immunodeficiency virus 1, IIIB, 0% NHS condition (RPMI 1640), read-out: WILD TYPE CELL ASSAY Viking IP (0% NHS)

SMILES: CCN1CC2(CCOC(F)F)CC(O)c3c(C(=O)NCc4ccc(F)cc4F)c(=O)c(O)c(n32)C1=O (single isomer, unassigned) [Compound 1]
- pIC50 [1]: 8.12
- pIC50 [2]: 6.63

SMILES: CCN1CC2(CCOC(F)F)CC(O)c3c(C(=O)NCc4ccc(F)cc4F)c(=O)c(O)c(n32)C1=O (single isomer, unassigned) [Compound 2]
- pIC50 [1]: 8.20
- pIC50 [2]: 7.02

SMILES: CN1CC2(C)CC(O)c3c(C(=O)NCc4ccc(F)cc4)c(=O)c(O)c(n32)C1=O (single isomer, unassigned) [Compound 21]
- pIC50 [3]: 8.43
- pIC50 [2]: 6.03

SMILES: CN1CC2(C)CC(O)c3c(C(=O)NCc4ccc(F)cc4)c(=O)c(O)c(n32)C1=O (single isomer, unassigned) [Compound 22]
- pIC50 [1]: 8.52
- pIC50 [2]: 6.64

SMILES: CN1CC2(C)CC(O)c3c(C(=O)NCc4c(F)cc(F)cc4F)c(=O)c(O)c(n32)C1=O (single isomer, unassigned) [Compound 25]
- pIC50 [3]: 8.85
- pIC50 [2]: 5.77

SMILES: CN1CC2(C)CC(O)c3c(C(=O)NCc4c(F)cc(F)cc4F)c(=O)c(O)c(n32)C1=O (single isomer, unassigned) [Compound 26]
- pIC50 [1]: 8.68
- pIC50 [2]: 6.97

SMILES: CN1CC2(C)CC(O)c3c(C(=O)NCc4c(F)ccc(Cl)c4F)c(=O)c(O)c(n32)C1=O (single isomer, unassigned) [Compound 29]
- pIC50 [3]: 8.72
- pIC50 [2]: 5.50

SMILES: CN1CC2(C)CC(O)c3c(C(=O)NCc4c(F)ccc(Cl)c4F)c(=O)c(O)c(n32)C1=O (single isomer, unassigned) [Compound 30]
- pIC50 [1]: 8.68
- pIC50 [2]: 6.39

SMILES: CN1CC2(C)CC(O)c3c(C(=O)NCc4cccc(Cl)c4F)c(=O)c(O)c(n32)C1=O (single isomer, unassigned) [Compound 33]
- pIC50 [3]: 8.52
- pIC50 [2]: 5.92

SMILES: CN1CC2(C)CC(O)c3c(C(=O)NCc4cccc(Cl)c4F)c(=O)c(O)c(n32)C1=O (single isomer, unassigned) [Compound 34]
- pIC50 [1]: 8.68
- pIC50 [2]: 6.75

SMILES: CCC12CC(O)c3c(C(=O)NCc4ccc(F)cc4F)c(=O)c(O)c(n31)C(=O)N(C)C2 (single isomer, unassigned) [Compound 37]
- pIC50 [1]: 8.66
- pIC50 [2]: 6.26

SMILES: CCC12CC(O)c3c(C(=O)NCc4ccc(F)cc4F)c(=O)c(O)c(n31)C(=O)N(C)C2 (single isomer, unassigned) [Compound 38]
- pIC50 [1]: 8.92
- pIC50 [2]: 7.49

SMILES: CCC12CC(O)c3c(C(=O)NCc4ccc(F)cc4F)c(=O)c(O)c(n31)C(=O)N(C)C2 (single isomer, unassigned) [Compound 39]
- pIC50 [1]: 8.68
- pIC50 [2]: 6.49

SMILES: CCC12CC(O)c3c(C(=O)NCc4ccc(F)cc4F)c(=O)c(O)c(n31)C(=O)N(C)C2 (single isomer, unassigned) [Compound 40]
- pIC50 [1]: 8.72
- pIC50 [2]: 7.41

SMILES: CCC12CC(O)c3c(C(=O)NCc4cccc(Cl)c4F)c(=O)c(O)c(n31)C(=O)N(C)C2 (single isomer, unassigned) [Compound 41]
- pIC50 [1]: 8.66
- pIC50 [2]: 7.52

SMILES: CCC12CC(O)c3c(C(=O)NCc4cccc(Cl)c4F)c(=O)c(O)c(n31)C(=O)N(C)C2 (single isomer, unassigned) [Compound 42]
- pIC50 [1]: 8.55
- pIC50 [2]: 7.23

SMILES: CCC12CC(O)c3c(C(=O)NCc4cccc(Cl)c4F)c(=O)c(O)c(n31)C(=O)N(C)C2 (single isomer, unassigned) [Compound 43]
- pIC50 [1]: 8.43
- pIC50 [2]: 5.90

SMILES: CCC12CC(O)c3c(C(=O)NCc4cccc(Cl)c4F)c(=O)c(O)c(n31)C(=O)N(C)C2 (single isomer, unassigned) [Compound 44]
- pIC50 [1]: 8.43
- pIC50 [2]: 6.59

SMILES: CCC12CC(O)c3c(C(=O)NCc4c(F)cc(F)cc4F)c(=O)c(O)c(n31)C(=O)N(C)C2 (single isomer, unassigned) [Compound 45]
- pIC50 [3]: 8.96
- pIC50 [2]: 7.75

SMILES: CCC12CC(O)c3c(C(=O)NCc4c(F)cc(F)cc4F)c(=O)c(O)c(n31)C(=O)N(C)C2 (single isomer, unassigned) [Compound 46]
- pIC50 [1]: 8.80
- pIC50 [2]: 7.43

SMILES: CCC12CC(O)c3c(C(=O)NCc4c(F)ccc(F)c4F)c(=O)c(O)c(n31)C(=O)N(C)C2 (single isomer, unassigned) [Compound 49]
- pIC50 [3]: 8.59
- pIC50 [2]: 5.99

SMILES: CCC12CC(O)c3c(C(=O)NCc4c(F)ccc(F)c4F)c(=O)c(O)c(n31)C(=O)N(C)C2 (single isomer, unassigned) [Compound 50]
- pIC50 [1]: 8.54
- pIC50 [2]: 7.59

SMILES: CCC12CC(O)c3c(C(=O)NCc4c(F)ccc(Cl)c4F)c(=O)c(O)c(n31)C(=O)N(C)C2 (single isomer, unassigned) [Compound 53]
- pIC50 [3]: 8.59
- pIC50 [2]: 5.36

SMILES: CCC12CC(O)c3c(C(=O)NCc4c(F)ccc(Cl)c4F)c(=O)c(O)c(n31)C(=O)N(C)C2 (single isomer, unassigned) [Compound 54]
- pIC50 [1]: 8.55
- pIC50 [2]: 7.53

SMILES: CCN1CC2(COC)CC(O)c3c(C(=O)NCc4ccc(F)cc4F)c(=O)c(O)c(n32)C1=O (single isomer, unassigned) [Compound 57]
- pIC50 [1]: 8.51
- pIC50 [2]: 5.00

SMILES: CCN1CC2(COC)CC(O)c3c(C(=O)NCc4ccc(F)cc4F)c(=O)c(O)c(n32)C1=O (single isomer, unassigned) [Compound 58]
- pIC50 [1]: 8.64
- pIC50 [2]: 6.57

SMILES: CCN1CC2(COC)CC(O)c3c(C(=O)NCc4ccc(F)cc4F)c(=O)c(O)c(n32)C1=O (single isomer, unassigned) [Compound 59]
- pIC50 [1]: 8.49
- pIC50 [2]: 6.98

SMILES: CCN1CC2(COC)CC(O)c3c(C(=O)NCc4ccc(F)cc4F)c(=O)c(O)c(n32)C1=O (single isomer, unassigned) [Compound 60]
- pIC50 [1]: 8.15
- pIC50 [2]: 5.90

SMILES: CCN1CC2(COC)CC(O)c3c(C(=O)NCc4c(F)cc(F)cc4F)c(=O)c(O)c(n32)C1=O (single isomer, unassigned) [Compound 61]
- pIC50 [3]: 8.64
- pIC50 (Human immunodeficiency virus 1, IIIB, 100% normal human serum condition, read-out: WILD TYPE CELL ASSAY Viking IP (100% NHS)): 7.02

SMILES: CCN1CC2(COC)CC(O)c3c(C(=O)NCc4c(F)cc(F)cc4F)c(=O)c(O)c(n32)C1=O (single isomer, unassigned) [Compound 62]
- pIC50 [1]: 8.62
- pIC50 [2]: 7.22

SMILES: CC1N(C)C(=O)c2c(O)c(=O)c(C(=O)NCc3ccc(F)cc3F)c3n2C1(C)CC3O (single isomer, unassigned) [Compound 65]
- pIC50 [1]: 8.77
- pIC50 [2]: 6.97

SMILES: CC1N(C)C(=O)c2c(O)c(=O)c(C(=O)NCc3ccc(F)cc3F)c3n2C1(C)CC3O (single isomer, unassigned) [Compound 66]
- pIC50 [1]: 8.85
- pIC50 [2]: 7.49

SMILES: CC1N(C)C(=O)c2c(O)c(=O)c(C(=O)NCc3ccc(F)cc3F)c3n2C1(C)CC3O (single isomer, unassigned) [Compound 67]
- pIC50 [1]: 8.64
- pIC50 [2]: 7.08

SMILES: CC1N(C)C(=O)c2c(O)c(=O)c(C(=O)NCc3ccc(F)cc3F)c3n2C1(C)CC3O (single isomer, unassigned) [Compound 68]
- pIC50 [1]: 8.62
- pIC50 [2]: 7.34

SMILES: CC1N(C)C(=O)c2c(O)c(=O)c(C(=O)NCc3ccc(F)cc3F)c3n2C1(C)CC3O (single isomer, unassigned) [Compound 69]
- pIC50 [1]: 8.72
- pIC50 [2]: 7.11

SMILES: CC1N(C)C(=O)c2c(O)c(=O)c(C(=O)NCc3ccc(F)cc3F)c3n2C1(C)CC3O (single isomer, unassigned) [Compound 70]
- pIC50 [1]: 8.92
- pIC50 [2]: 7.58

SMILES: CC1N(C)C(=O)c2c(O)c(=O)c(C(=O)NCc3ccc(F)cc3F)c3n2C1(C)CC3O (single isomer, unassigned) [Compound 71]
- pIC50 [1]: 8.51
- pIC50 [2]: 7.04

SMILES: CC1N(C)C(=O)c2c(O)c(=O)c(C(=O)NCc3ccc(F)cc3F)c3n2C1(C)CC3O (single isomer, unassigned) [Compound 72]
- pIC50 [1]: 8.89
- pIC50 [2]: 7.80

SMILES: CC1C(O)c2c(C(=O)NCc3ccc(F)cc3F)c(=O)c(O)c3n2C1(C)CN(C)C3=O (single isomer, unassigned) [Compound 73]
- pIC50 [1]: 8.64
- pIC50 [2]: 6.41
